Laboratory results as given in ChEMBL document CHEMBL4725277, “Synthetic and therapeutic perspectives of nitrogen containing heterocycles as anti-convulsants” (Bioorg Med Chem, 2020).

Assays:
[1] = Neurotoxicity in ip injected albino mouse; assay type: toxicity, organism-based; settings: in vivo
Mus musculus [2] = assay: Anticonvulsant activity in ip injected albino mouse assessed as protection against 50 mA current-induced seizure by maximal electroshock seizure test; assay type: functional
[3] = Protective index, ratio of TD50 for neurotoxicity in ip injected albino mouse to ED50 for anticonvulsant activity in ip injected albino mouse assessed as protection against 50 mA current-induced seizure; assay type: toxicity, organism-based; settings: in vivo
[4] = Protective index, ratio of TD50 for neurotoxicity in mouse to ED50 for anticonvulsant activity in mouse assessed as protection against pentylenetetrazole-induced seizure; assay type: toxicity; settings: in vivo, read-out: PI
Mus musculus [5] = organism: Mus musculus; assay: Anticonvulsant activity in mouse assessed as protection against current-induced seizure by maximal electroshock seizure test; assay type: functional
[6] = Protective index, ratio of TD50 for neurotoxicity in mouse to ED50 for anticonvulsant activity in mouse assessed as protection against current-induced seizure; assay type: toxicity; settings: in vivo, read-out: PI
[7] = Neurotoxicity in mouse by rotarod test; assay type: toxicity; settings: in vivo
Mus musculus [8] = organism: Mus musculus; assay: Anticonvulsant activity in albino mouse assessed as pentylenetetrazole-induced seizure; assay type: functional
Mus musculus [9] = organism: Mus musculus; assay: Anticonvulsant activity in albino mouse assessed as current-induced seizure relative to control; assay type: functional
Mus musculus [10] = organism: Mus musculus; assay: Anticonvulsant activity in albino mouse assessed as current-induced seizure latency time; assay type: functional
Mus musculus [11] = assay: Anticonvulsant activity in albino mouse assessed as protection against 50 mA current-induced seizure at 100 mg/kg by maximal electroshock seizure test relative to control; assay type: functional
Mus musculus [12] = organism: Mus musculus; assay: Anticonvulsant activity in albino mouse assessed as protection against 50 mA current-induced seizure; assay type: functional; settings: read-out: PD50
Mus musculus [13] = assay: Anticonvulsant activity in albino mouse assessed as protection against 50 mA current-induced seizure at 50 mg/kg by maximal electroshock seizure test relative to control; assay type: functional
Mus musculus [14] = assay: Anticonvulsant activity in albino mouse assessed as protection against 50 mA current-induced seizure at 200 mg/kg by maximal electroshock seizure test relative to control; assay type: functional
Mus musculus [15] = organism: Mus musculus; assay: Anticonvulsant activity in albino mouse assessed as pentylenetetrazole-induced seizure measured after 30 mins; assay type: functional; settings: 0.5 h
Mus musculus [16] = assay: Anticonvulsant activity in ip injected albino mouse assessed as protection against 50 mA current-induced seizure after 0.5 to 4 hrs interval by maximal electroshock seizure test; assay type: functional; settings: time hrs 0.5-4
[17] = Protective index, ratio of TD50 for neurotoxicity in ip injected albino mouse to ED50 for anticonvulsant activity in albino mouse assessed as pentylenetetrazole-induced seizure; assay type: toxicity, organism-based; settings: in vivo
[18] = Lipophilicity, log P of the compound; assay type: physicochemical; settings: octanol/water
[19] = Neurotoxicity in ip and po injected mouse; assay type: toxicity, organism-based; settings: in vivo
Mus musculus [20] = organism: Mus musculus; assay: Anticonvulsant activity in mouse assessed as protection against 50 mA current-induced seizure after 0.5 hrs by maximal electroshock seizure test; assay type: functional
[21] = Protective index, ratio of TD50 for neurotoxicity in ip and po injected mouse to ED50 for anticonvulsant activity in mouse assessed as protection against 50 mA current-induced seizure; assay type: toxicity, organism-based; settings: in vivo, read-out: PI
[22] = Neurotoxicity in albino rat at 100 mg/kg, ip after 30 mins (reference value: 2%); assay type: toxicity, organism-based; settings: in vivo, 0.5 h
Mus musculus [23] = organism: Mus musculus; assay: Anticonvulsant activity in KunMing mouse assessed as protection against 50 mA current-induced seizure after 0.5 to 4 hrs by maximal electroshock seizure test; assay type: functional; settings: time hrs 0.5-4
[24] = Neurotoxicity in KunMing mouse after 30 mins by rotarod test; assay type: toxicity; settings: in vivo
Mus musculus [25] = organism: Mus musculus; assay: Anticonvulsant activity in KunMing mouse assessed as protection against 50 mA current-induced seizure after 30 mins interval by maximal electroshock seizure test; assay type: functional; settings: 0.5 h
Mus musculus [26] = organism: Mus musculus; assay: Anticonvulsant activity in KunMing mouse assessed as protection against current-induced seizure by maximal electroshock seizure test; assay type: functional
Mus musculus [27] = organism: Mus musculus; assay: Anticonvulsant activity in albino mouse assessed as protection against 50 mA current-induced seizure by maximal electroshock seizure test; assay type: functional
[28] = Neurotoxicity in KunMing mouse by rotarod test; assay type: toxicity; settings: in vivo
Mus musculus [29] = organism: Mus musculus; assay: Anticonvulsant activity in KunMing mouse assessed as protection against pentylenetetrazole-induced seizure by maximal electroshock seizure test; assay type: functional
Mus musculus [30] = assay: Anticonvulsant activity in albino mouse assessed as protection against 50 mA current-induced seizure at 20 mg/kg by maximal electroshock seizure test relative to control; assay type: functional
Mus musculus [31] = assay: Anticonvulsant activity in albino mouse assessed as protection against 50 mA current-induced seizure at 30 mg/kg by maximal electroshock seizure test relative to control; assay type: functional
Mus musculus [32] = assay: Anticonvulsant activity in albino mouse assessed as protection against 50 mA current-induced seizure at 10 mg/kg by maximal electroshock seizure test relative to control; assay type: functional
Mus musculus [33] = assay: Anticonvulsant activity in albino mouse assessed as protection against 50 mA current-induced seizure at 25 mg/kg by maximal electroshock seizure test relative to control; assay type: functional

Nc1nc(-c2ccccc2)nnc1C(=O)N1CCCC1c1noc2cc(F)ccc12 (configuration not stated)
TD50 [1]: > 300 mg/kg | ED50 (Mus musculus [2]): 6.2 mg/kg | selectivity ratio ([3]; read-out: Ratio): > 48.4

CN(C)c1ccc(C2CC(c3ccccc3)=NC(=S)N2C(=S)Nc2ccccc2)cc1 (configuration not stated)
selectivity ratio [4]: 1.7 | ED50 (Mus musculus [5]): 32.2 mg/kg | selectivity ratio [6]: 18 | TD50 [7]: 580 mg/kg | ED50 (Mus musculus [8]): 332 mg/kg

CC(=O)Oc1cc2ccccc2cc1-c1nnc(N(C(C)=O)c2cccc(F)c2)s1
Activity (Mus musculus [9]): 70% | Time (Mus musculus [10]): 4.41 min

O=C(CNC(=O)c1ccncc1)Nn1c(COc2ccc(Cl)cc2Cl)nc2ccccc2c1=O
Activity (Mus musculus [11]): 70% | ED50 (Mus musculus [12]): 103 mg/kg | Activity (Mus musculus [13]): 50% | Activity (Mus musculus [14]): 80%

S=C1N=C(c2ccccc2)CC(c2ccccc2)N1c1ccc(Cl)cc1 (configuration not stated)
ED50 (Mus musculus [15]): 312 mg/kg | TD50 [1]: 420 mg/kg | ED50 (Mus musculus [16]): 19.4 mg/kg | selectivity ratio ([3]; read-out: PI): 21.6 | selectivity ratio ([17]; read-out: PI): 1.3

COc1ccc(-c2nc(N/N=C/c3cccc(F)c3)[nH]c(=O)c2C#N)cc1
logP [18]: 2.13

Nc1nc(-c2ccccc2)nnc1C(=O)N1CCCC1c1noc2cc(Br)ccc12 (configuration not stated)
TD50 [1]: > 100 mg/kg | ED50 (Mus musculus [2]): 12.2 mg/kg | selectivity ratio ([3]; read-out: Ratio): > 8.22

O=c1c2ccccc2n2cnnc2n1-c1ccc(Br)cc1
TD50 [19]: > 700 mg/kg | ED50 (Mus musculus [20]): 26.89 | selectivity ratio [21]: > 26

Nc1ccc(Cl)cc1-c1n[nH]c(=O)n(-c2ccc(O)cc2)c1=O
TD50 [1]: 682 mg/kg | ED50 (Mus musculus [2]): 51.1 mg/kg | ED50 (Mus musculus [8]): 95.3 mg/kg | selectivity ratio ([3]; read-out: Ratio): 13.6 | selectivity ratio ([17]; read-out: Ratio): 7.15

Nc1nnc(C(=O)N2CCCC2c2noc3cc(F)ccc23)c(N)n1 (configuration not stated)
TD50 [1]: > 200 mg/kg | ED50 (Mus musculus [2]): 7.1 mg/kg | selectivity ratio ([3]; read-out: Ratio): > 28.2

CN(C)CCOc1ccc2c(c1)/C(=N/NC(N)=O)C(=O)N2
Activity [22]: 7%

CN(C)Nc1ccc(/C=N/Nc2nnc(-c3ccccc3)nc2Cc2ccc(Cl)cc2)cc1
ED50 (Mus musculus [15]): 83.9 mg/kg | TD50 [1]: 360 mg/kg | ED50 (Mus musculus [16]): 46 mg/kg | selectivity ratio ([3]; read-out: Ratio): 7.82 | selectivity ratio ([17]; read-out: Ratio): 4.29

NC(=O)N1c2ccccc2C=Cc2ccccc21 [CARBAMAZEPINE]
ED50 (Mus musculus [15]): > 100 mg/kg | TD50 [1]: 65.5 mg/kg | ED50 (Mus musculus [23]): 9.8 mg/kg | ED50 (Mus musculus [5]): 11.8 mg/kg | TD50 at 0.5 h [24]: 69.1 mg/kg | TD50 [7]: 11.8 mg/kg | ED50 (Mus musculus [16]): 8.8 mg/kg | ED50 (Mus musculus [25]): 10.1 mg/kg | ED50 (Mus musculus [8]): > 100 mg/kg | ED50 (Mus musculus [26]): 11.8 mg/kg

CN1C(=O)CN=C(c2ccccc2)c2cc(Cl)ccc21 [DIAZEPAM]
Activity [22]: 88% | ED50 (Mus musculus [15]): 0.7 mg/kg | ED50 (Mus musculus [27]): 0.8 mg/kg

CCC1(C)CC(=O)NC1=O (configuration not stated) [ETHOSUXIMIDE]
TD50 [28]: 343 mg/kg | ED50 (Mus musculus [2]): > 1000 mg/kg | ED50 (Mus musculus [29]): 106 mg/kg | ED50 (Mus musculus [8]): 130 mg/kg | selectivity ratio ([3]; read-out: Ratio): < 0.44 | selectivity ratio ([17]; read-out: Ratio): 3.39

CCC1(c2ccccc2)C(=O)NC(=O)NC1=O [PHENOBARBITAL]
Activity (Mus musculus [30]): 60% | Activity (Mus musculus [31]): 100% | ED50 (Mus musculus [23]): 21.8 mg/kg | ED50 (Mus musculus [12]): 14.4 mg/kg | ED50 (Mus musculus [5]): 21.8 mg/kg | Activity (Mus musculus [32]): 40%

O=C1N=C([O-])NC1(c1ccccc1)c1ccccc1.[Na+] [PHENYTOIN SODIUM]
Activity (Mus musculus [33]): 100%

O=C1NC(=O)C(c2ccccc2)(c2ccccc2)N1 [PHENYTOIN]
ED50 (Mus musculus [15]): > 100 mg/kg | ED50 (Mus musculus [16]): 8.8 mg/kg | ED50 (Mus musculus [8]): > 300 mg/kg

CCCC(CCC)C(=O)[O-].[Na+] [VALPROATE SODIUM]
TD50 [1]: 42.6 mg/kg | ED50 (Mus musculus [16]): 272 mg/kg

CCCC(CCC)C(=O)O [VALPROIC ACID]
Time (Mus musculus [10]): 7.2 min
